Consider ten molecules from ChEMBL document CHEMBL1201862, “PubChem BioAssay data set” (2004).

The structures appear in SMILES notation.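 Exposure lasted 48 hours, with cells grown in 96-well plates and compounds tested at five concentrations. GI50 = concentration required for 50% inhibition of growth.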 The source made the active and inactive calls. Rule as the data show it: active = GI50 up to about 1.1 µM and inactive = higher. Bounds are passed on as bounds.

Some test systems named below: SK-MEL-2; EKVX; SK-MEL-28; MOLT-4; SN12C; MDA-N; NCI-H226; TK-10; HCT-116; DU-145; HOP-62; SF-295; T47D; U-251; SK-MEL-5; OVCAR-3; NCI-H460; SF-268; MDA-MB-435; HCT-15.
Common to all, as to experiment: NCI tumour cell line growth inhibition, 48 h

On to `CCN(CC)CC(C)(C)C(=O)/C=C/c1ccc(/C=C/C(=O)C(C)(C)CN(CC)CC)cc1`, for which the GI50 in the assay on SK-MEL-2 was 1.72 µM (inactive); with EKVX it was 1.63 µM (inactive); with SK-MEL-28, 0.796 µM (active); in the assay with MOLT-4, 0.14 µM (active); in the assay on SN12C it was 0.471 µM (active); in the assay on MDA-N it was 0.44 µM (active). Besides, the GI50 in the assay with NCI-H226 was 2.28 µM (inactive); in the assay with TK-10 it was 1.19 µM (inactive); in the assay on HCT-116, 0.334 µM (active); with DU-145, 2.01 µM (inactive); with HOP-62, 1.95 µM (inactive); in the assay with SF-295 it was 1.22 µM (inactive). Moreover, the GI50 was 0.587 µM (active) in the assay with T47D; 0.469 µM (active) in the assay with U-251; 1.54 µM (inactive) with SK-MEL-5; 0.533 µM (active) in the assay with OVCAR-3; 0.427 µM (active) in the assay on NCI-H460; 0.512 µM (active) in the assay with SF-268. Also, the results for the GI50 in the assay with MDA-MB-435 and in the assay with HCT-15 were 0.897 µM (active) and 0.325 µM, respectively.

With `OC1=C2c3ccccc3NC2Oc2cc(F)ccc21` (stereo not given), the GI50 in the assay on SK-MEL-2 was 19.7 µM (inactive); in the assay on EKVX, 3.6 µM (inactive); with SK-MEL-28 it was 30.1 µM (inactive); with MOLT-4, 13.6 µM (inactive); in the assay on SN12C it was 12.7 µM (inactive); with MDA-N, 15.8 µM (inactive). For the same molecule, the GI50 was 22.4 µM (inactive) in the assay with NCI-H226; 25.1 µM (inactive) in the assay on TK-10; 14 µM (inactive) in the assay with HCT-116; 18.5 µM (inactive) in the assay on DU-145; 17.7 µM (inactive) in the assay on HOP-62; 14.7 µM (inactive) in the assay on SF-295. Also, the GI50 with T47D is 19.2 µM (inactive); in the assay on U-251, 15.7 µM (inactive); with SK-MEL-5, 15 µM (inactive); in the assay with OVCAR-3, 11.9 µM (inactive); with NCI-H460 it was 18.5 µM (inactive); in the assay with SF-268, 18.2 µM (inactive). Further, the GI50 is 17.1 µM (inactive) with MDA-MB-435 and 15.8 µM in the assay with HCT-15.

With `CCOC(=O)C1=C(C)N(Cc2ccccc2)C2(O)C=CC(O)=C3C(=O)c4ccccc4C(=O)C312` (stereo not given), the GI50 in the assay with SK-MEL-2 is 13.9 µM (inactive); with EKVX, 16.4 µM (inactive); with SK-MEL-28, 28.6 µM (inactive); in the assay on MOLT-4 it was 8.15 µM (inactive); with SN12C it was 13.5 µM (inactive); in the assay on MDA-N, 6.37 µM (inactive). Besides, the GI50 with NCI-H226 was 20.6 µM (inactive); in the assay on TK-10 it was 18.5 µM (inactive); in the assay with HCT-116, 10.2 µM (inactive); with DU-145, 16.5 µM (inactive); in the assay on HOP-62, 14.2 µM (inactive); in the assay on SF-295, 10.3 µM (inactive). The GI50 in the assay on T47D was 18.9 µM (inactive); with U-251, 16.6 µM (inactive); in the assay with SK-MEL-5, 10.3 µM (inactive); with OVCAR-3, 7.67 µM (inactive); in the assay with NCI-H460, 11.3 µM (inactive); in the assay with SF-268 it was 10.1 µM (inactive). The GI50 is 8.93 µM (inactive) in the assay on MDA-MB-435 and 3.82 µM in the assay with HCT-15.

With `CC1=C(C(=O)Nc2ccccc2)C(c2ccc(N(C)C)cc2)C(C(=O)Nc2ccccc2)=C(C)N1`, the GI50 in the assay with SK-MEL-2 is > 70.1 µM (inactive); with EKVX, 62.8 µM (inactive); in the assay with SK-MEL-28 it was 12.4 µM (inactive); in the assay with MOLT-4 it was 2.89 µM (inactive); with SN12C it was 46.3 µM (inactive); in the assay with MDA-N it was 1.75 µM (inactive). The GI50 is > 89.5 µM (inactive) in the assay on NCI-H226; 39.4 µM (inactive) in the assay with TK-10; 4.72 µM (inactive) in the assay with HCT-116; 3.17 µM (inactive) with DU-145; 5 µM (inactive) in the assay on HOP-62; 3.54 µM (inactive) with SF-295. In addition, the GI50 in the assay on T47D was 3.33 µM (inactive); with U-251, 15.9 µM (inactive); in the assay with SK-MEL-5 it was 1.1 µM (active); with OVCAR-3, 8.69 µM (inactive); in the assay on NCI-H460, 1.43 µM (inactive); in the assay with SF-268 it was 9.31 µM (inactive). Further, the GI50 in the assay with MDA-MB-435 was 0.804 µM (active); with HCT-15 it was 0.493 µM.

Regarding `COc1ccc(C2Oc3ccc(Cl)cc3C=C2[N+](=O)[O-])cc1OC` (stereo not given), the GI50 with SK-MEL-2 is 1.48 µM (inactive); in the assay with EKVX, 2.72 µM (inactive); with SK-MEL-28 it was 1.27 µM (inactive); in the assay on MOLT-4, 0.216 µM (active); with SN12C it was 0.871 µM (active); in the assay on MDA-N it was 0.231 µM (active). The GI50 is 1.64 µM (inactive) in the assay on NCI-H226; 1.51 µM (inactive) in the assay on TK-10; 0.426 µM (active) in the assay on HCT-116; 1.62 µM (inactive) with DU-145; 1.49 µM (inactive) in the assay with HOP-62; 1.48 µM (inactive) in the assay on SF-295. The GI50 in the assay with T47D is 1.52 µM (inactive); in the assay with U-251 it was 1.05 µM (active); with SK-MEL-5, 1.53 µM (inactive); in the assay on OVCAR-3, 0.719 µM (active); with NCI-H460, 2.38 µM (inactive); in the assay with SF-268 it was 0.617 µM (active). The GI50 in the assay on MDA-MB-435 was 0.15 µM (active); with HCT-15, 1.47 µM.

With `CC1=C(C2=C(C)C(=O)C(=O)c3cc(C)ccc32)c2ccc(C)cc2C(=O)C1=O`, the GI50 in the assay on SK-MEL-2 is 0.313 µM (active); with EKVX it was 0.28 µM (active); in the assay with SK-MEL-28, 0.185 µM (active); in the assay with MOLT-4, 0.287 µM (active); in the assay with SN12C it was 0.197 µM (active); in the assay on MDA-N, 0.187 µM (active). Further, the GI50 in the assay on NCI-H226 is 1.9 µM (inactive); in the assay with TK-10 it was 0.64 µM (active); in the assay on HCT-116 it was 0.333 µM (active); in the assay on DU-145, 1.44 µM (inactive); with HOP-62, 0.451 µM (active); with SF-295, 0.194 µM (active). Besides, the GI50 in the assay with T47D was 0.249 µM (active); in the assay on U-251, 0.226 µM (active); in the assay with SK-MEL-5, 0.206 µM (active); in the assay on OVCAR-3 it was 0.153 µM (active); in the assay with NCI-H460 it was 0.243 µM (active); with SF-268 it was 0.203 µM (active). Further, the GI50 is 0.201 µM (active) with MDA-MB-435 and 0.278 µM in the assay with HCT-15.

With `CN(C)CCNc1ccc([N+](=O)[O-])c2nc3ccccc3c(N)c12`, the GI50 in the assay with SK-MEL-2 was 1.99 µM (inactive); in the assay with EKVX, 0.607 µM (active); in the assay with SK-MEL-28 it was 3.83 µM (inactive); with MOLT-4, 0.434 µM (active); in the assay on SN12C it was 0.783 µM (active); in the assay on MDA-N it was 0.585 µM (active). Moreover, the GI50 was > 10 µM (inactive) in the assay with NCI-H226; 2.53 µM (inactive) in the assay with TK-10; 0.261 µM (active) in the assay on HCT-116; 0.804 µM (active) in the assay with DU-145; 2.26 µM (inactive) in the assay on HOP-62; 0.711 µM (active) with SF-295. Moreover, the GI50 in the assay on T47D was 0.48 µM (active); in the assay with U-251 it was 0.703 µM (active); in the assay on SK-MEL-5, 1.41 µM (inactive); with OVCAR-3, 0.532 µM (active); with NCI-H460 it was 0.318 µM (active); in the assay on SF-268, 0.507 µM (active). Further, the figures for the GI50 with MDA-MB-435 and in the assay on HCT-15 were 0.615 µM (active) and 0.444 µM, respectively.

For the molecule `CC1(C)O[C@@H](CP(c2cccc3ccccc23)c2cccc3ccccc23)[C@H](CP(c2cccc3ccccc23)c2cccc3ccccc23)O1`, the GI50 in the assay on SK-MEL-2, with EKVX, in the assay on SK-MEL-28, in the assay with MOLT-4, in the assay on SN12C and in the assay on MDA-N was > 100 µM (inactive) in each case. For the same molecule, the GI50 with NCI-H226, with TK-10, in the assay with HCT-116, in the assay on DU-145, with HOP-62 and in the assay on SF-295 was > 100 µM (inactive) each time. The GI50 in the assay with T47D, in the assay with U-251, in the assay on SK-MEL-5, in the assay with OVCAR-3, in the assay with NCI-H460 and in the assay on SF-268 was > 100 µM (inactive) in each case. For the same molecule, the figures for the GI50 in the assay on MDA-MB-435 and in the assay with HCT-15 were > 100 µM (inactive) and more than 100 µM, respectively.

On to `CN1CCC(O)(OC(=O)C(c2ccccc2)C2(O)CCCC2)CC1` (stereo not given), for which the GI50 in the assay with SK-MEL-2, in the assay with EKVX, with SK-MEL-28, in the assay on MOLT-4, in the assay on SN12C and in the assay on MDA-N was > 100 µM (inactive) in each case. The GI50 in the assay on NCI-H226, with TK-10, in the assay on HCT-116, in the assay on DU-145, in the assay with HOP-62 and in the assay on SF-295 was > 100 µM (inactive) each time. Moreover, the GI50 in the assay with T47D, with U-251, in the assay with SK-MEL-5, in the assay on OVCAR-3, in the assay with NCI-H460 and in the assay on SF-268 was > 100 µM (inactive) throughout. Moreover, the results for the GI50 with MDA-MB-435 and with HCT-15 were > 100 µM (inactive) and more than 100 µM, respectively.

Consider `CN(C)c1ccc(/C=C/C=C(/C#N)c2ccccc2)cc1`, for which the GI50 in the assay on SK-MEL-2 is 13.7 µM (inactive); in the assay with EKVX, 55.2 µM (inactive); with SK-MEL-28 it was > 82.4 µM (inactive); with MOLT-4, 11.8 µM (inactive); in the assay with SN12C, 45.4 µM (inactive); in the assay on MDA-N, 1.94 µM (inactive). For the same molecule, the GI50 in the assay on NCI-H226 is 53.1 µM (inactive); with TK-10, 42.8 µM (inactive); in the assay on HCT-116 it was 16.4 µM (inactive); in the assay with DU-145, 55.7 µM (inactive); with HOP-62 it was 19 µM (inactive); in the assay with SF-295 it was 26.8 µM (inactive). Moreover, the GI50 is 9.57 µM (inactive) with T47D; 17.1 µM (inactive) in the assay on U-251; 14.5 µM (inactive) with SK-MEL-5; 9.91 µM (inactive) in the assay on OVCAR-3; 25.5 µM (inactive) in the assay on NCI-H460; 37.3 µM (inactive) in the assay with SF-268. Besides, the GI50 with MDA-MB-435 was 2 µM (inactive); in the assay on HCT-15, 6.87 µM.
